Measured values taken from patent publication US5780025A, “Compositions and methods for the synthesis and assay of enkephalinase” (Genentech, Inc., priority 1993, dated 1998).

Target: T1, purified rat kidney enkephalinase (Rattus norvegicus, UniProt P07861)
T1 construct: Rat kidney enkephalinase was purified to apparent homogeneity; from tissue; host or cells: rat kidney (male rats, membrane fraction, Triton X-100 solubilised)
T1 sequence (P07861 1-750): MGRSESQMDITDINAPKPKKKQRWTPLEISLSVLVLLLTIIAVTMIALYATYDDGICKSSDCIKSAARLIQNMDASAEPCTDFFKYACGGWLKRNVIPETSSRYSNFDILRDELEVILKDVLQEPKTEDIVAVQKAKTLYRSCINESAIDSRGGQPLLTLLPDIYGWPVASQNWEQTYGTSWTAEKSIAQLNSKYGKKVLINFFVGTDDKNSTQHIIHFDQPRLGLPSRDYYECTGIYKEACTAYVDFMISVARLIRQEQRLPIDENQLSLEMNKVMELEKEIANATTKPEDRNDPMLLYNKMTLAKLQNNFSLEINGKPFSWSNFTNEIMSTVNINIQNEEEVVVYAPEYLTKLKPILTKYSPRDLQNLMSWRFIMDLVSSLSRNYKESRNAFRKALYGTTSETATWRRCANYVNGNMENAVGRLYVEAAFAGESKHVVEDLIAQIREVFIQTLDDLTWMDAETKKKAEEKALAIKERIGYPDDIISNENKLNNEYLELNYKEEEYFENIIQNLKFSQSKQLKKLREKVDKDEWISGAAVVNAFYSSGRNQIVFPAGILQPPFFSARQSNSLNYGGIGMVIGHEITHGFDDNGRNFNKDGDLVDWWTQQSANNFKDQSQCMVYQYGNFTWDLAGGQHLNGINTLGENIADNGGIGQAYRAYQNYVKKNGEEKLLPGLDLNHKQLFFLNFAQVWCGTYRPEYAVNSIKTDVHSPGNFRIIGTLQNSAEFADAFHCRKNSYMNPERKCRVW
Test: HPLC analysis of the hydrolysis of peptides by enkephalinase, without and with thiorphan
Assay type: biochemical
Conditions: 100 nM thiorphan; peptides 1 mM, 1 hr at 37° C., 5 ng enzyme

inhibition of the hydrolysis of all substrates: completely inhibited
SMILES: O=C(O)CNC(=O)C(CS)Cc1ccccc1 (stereo not shown) [Thiorphan]
